Assay [1] is described as follows: Antioxidant activity by ferric reducing antioxidant power assay. It counts as functional.
Assay [2] has as its system Radical scavenging activity. Kind of assay: Antioxidant activity assessed as DPPH radical scavenging activity by Brand-Williams method. It counts as functional. (The DPPH test is a chemical assay of radical scavenging.)

For the compound `O=C1O[C@H]([C@@H](O)CO)C(O)=C1O`, the results for the Activity in assay [1] and in assay [2] were 824 µM and 903 µM, respectively.
For the compound `C/C=C/CC[S+]([O-])C[C@@H](N)C(=O)O` (stereo partly specified), the Activity was determined as 178 µM in assay [1] and 107 µM in assay [2].
Turning to `Cc1cc(C(C)(C)C)c(O)c(C(C)(C)C)c1`, the Activity in assay [1] came out at 677 µM; in assay [2], 637 µM.

These data come from ChEMBL document CHEMBL1151713, “S-alkenyl cysteine sulfoxide and its antioxidant properties from Allium cepa var. tropeana (red onion) seeds” (J Nat Prod, 2008).
